This note sets out measurements from patent US7495104B2, “Quinoline or quinazoline derivatives inhibiting auto-phosphorylation of fibroblast growth factor receptors” (Kirin Beer Kabushiki Kaisha, priority 2001, dated 2009).

pIC50: −log10 of the molar value. Structures can show the parent of a compound that is named as a salt. Where only a bound is given, the exact number is not on record here.

The target of this test is Bek (Homo sapiens, UniProt P21802). The test is described as follows: Inhibitory activity against Bek-autophosphorylation using ELISA method in OCUM-2MD3 cells. The test is classed as cell-based. To be noted: 1 hr with compound, read-out: IC50 (concentration necessary for inhibiting 50% of Bek-phosphorylation). In short, it runs like this: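 OCUM-2MD3 human scirrhous gastric cancer cells in 0.1% FCS were exposed to compound for 1 hr at 37° C, then lysed. Phospho-tyrosine proteins were captured with anti-phosphotyrosine antibody, probed with anti-Bek antibody and peroxidase read-out (A450). Positive control (1000 nM) set 0%, untreated 100%; IC50 from multi-level dilutions.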
Sequence of Bek (P21802 431-767 limits assumed): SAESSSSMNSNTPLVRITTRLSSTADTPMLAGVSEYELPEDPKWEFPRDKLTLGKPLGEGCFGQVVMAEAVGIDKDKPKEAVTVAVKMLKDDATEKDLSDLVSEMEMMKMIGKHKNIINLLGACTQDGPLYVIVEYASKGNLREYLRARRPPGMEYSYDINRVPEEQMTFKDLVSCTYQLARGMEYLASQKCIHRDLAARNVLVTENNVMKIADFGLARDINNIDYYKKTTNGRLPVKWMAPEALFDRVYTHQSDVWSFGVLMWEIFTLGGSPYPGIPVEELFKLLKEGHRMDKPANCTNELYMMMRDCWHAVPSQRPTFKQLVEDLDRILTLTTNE
(In general: An ELISA detects its analyte on a solid surface through an enzyme-linked reagent.)
`CCCN(CCO)CCOc1cc2nccc(Oc3ccc(Nc4ccc(C(C)(C)C)cc4)cc3)c2cc1OC` [Compound 366, 2-[(2-{4-[4-(4-Tert-butyl-phenylamino)-phenoxy]-6-methoxy-quinolin-7-yloxy}-ethyl)-propyl-amino]-ethanol]: the pIC50 is 6.59.
The figure for `COc1cc2c(Oc3ccc(NC(=O)NCCC(C)(C)C)cc3)ccnc2cc1OCCCN1CCC(c2ccccc2)CC1` [Compound 246, 1-(3,3-Dimethyl-butyl)-3-(4-{6-methoxy-7-[3-(4-phenyl-piperidin-1-yl)-propoxy]-quinolin-4-yloxy}-phenyl)-urea] is 7.51; for `COc1cc2c(Oc3ccc(Nc4ccc(C(C)(C)C)cc4)c(Cl)c3)ccnc2cc1OCCN1CCC(CCO)CC1` [Compound 293, 2-[1-(2-{4-[4-(4-Tert-butyl-phenylamino)-3-chloro-phenoxy]-6-methoxy-quinolin-7-yloxy}-ethyl)-piperidin-4-yl]-ethanol] it is 5.63.
With `COc1cc2c(Oc3ccc(NC(=O)NCCC(C)(C)C)cc3)ccnc2cc1OCCN1CC(C)OC(C)C1` (centres unmarked) [Compound 119, 1-(3,3-Dimethyl-butyl)-3-(4-{7-[2-(2,6-dimethyl-morpholin-4-yl)-ethoxy]-6-methoxy-quinolin-4-yloxy}-phenyl)-urea], the pIC50 was more than 8.00.
To `COc1cc2nccc(Oc3ccc(Nc4ccc(C(C)(C)C)cc4)cc3Cl)c2cc1OC` [Compound 12, (4-Tert-butylphenyl)-[3-chloro-4-(6,7-dimethoxyquinolin-4-yloxy)phenyl]amine] belongs 6.54.
With `CCN(CCO)CCCOc1cc2nccc(Oc3ccc(NC(=O)NCCC(C)(C)C)cc3)c2cc1OC` [Compound 343, 1-(3,3-Dimethyl-butyl)-3-[4-(7-{3-[ethyl-(2-hydroxy-ethyl)-amino]-propoxy}-6-methoxy-quinolin-4-yloxy)-phenyl]-urea], the pIC50 is more than 8.00.
The figure for `COc1cc2c(Oc3ccc(NC(=O)NCCC(C)(C)C)cc3)ccnc2cc1OCCCCN1CCCCC1` [Compound 157, 1-(3,3-Dimethyl-butyl)-3-{4-[6-methoxy-7-(4-piperidin-1-yl-butoxy)-quinolin-4-yloxy]-phenyl}-urea hydrochloride] is 7.55; for `COc1cc2nccc(Oc3ccc(Cc4ccc(C(C)(C)C)cc4)cc3)c2cc1OC` [Compound 32, 4-[4-(4-Tert-butylbenzyl)phenoxy]-6,7-dimethoxyquinoline] it is 6.16; for `COc1cc2nccc(Oc3ccc(Nc4ccc(C(C)(C)C)cc4)cc3)c2cc1OCCNCCO` [Compound 356, 2-(2-{4-[4-(4-Tert-butyl-phenylamino)-phenoxy]-7-methoxy-quinolin-6-yloxy}-ethylamino)-ethanol] it is 6.46.
To `COc1cc2c(Oc3ccc(NC(=O)NCCC(C)(C)C)cc3)ccnc2cc1OCCCN1CC(C)OC(C)C1` (centres unmarked) [Compound 244, 1-(3,3-Dimethyl-butyl)-3-(4-{7-[3-(2,6-dimethyl-morpholin-4-yl)-propoxy]-6-methoxy-quinolin-4-yloxy}-phenyl)-urea] belongs more than 8.00; to `COc1cc2c(Oc3ccc(NC(=O)NCCC(C)(C)C)cc3Cl)ccnc2cc1OCCN1CCC(O)CC1` [Compound 311, 1-(3-Chloro-4-{7-[2-(4-hydroxy-piperidin-1-yl)-ethoxy]-6-methoxy-quinolin-4-yloxy}-phenyl)-3-(3,3-dimethyl-butyl)-urea], 7.64.
With `COc1cc2c(Oc3ccc(NC(=O)NCCC(C)(C)C)cc3Cl)ccnc2cc1OCCN1CCC(CCO)CC1` [Compound 315, 1-[3-Chloro-4-(7-{2-[4-(2-hydroxy-ethyl)-piperidin-1-yl]-ethoxy}-6-methoxy-quinolin-4-yloxy)-phenyl]-3-(3,3-dimethyl-butyl)-urea], the pIC50 was 6.88.
To `COc1cc2c(Oc3ccc(Nc4ccc(C(C)(C)C)cc4)cc3)ccnc2cc1OCCN1CCC(N2CCCCC2)CC1` [Compound 242, {4-[7-(2-[1,4′]Bipiperidineyl-1′-yl-ethoxy)-6-methoxy-quinolin-4-yloxy]-phenyl}-(4-tert-butyl-phenyl)-amine] belongs 6.40.
The figure for `COc1cc2c(Oc3ccc(NC(=O)NCCC(C)(C)C)cc3)ccnc2cc1OCC(O)CN1CCC(N2CCCC2)CC1` (centres unmarked) [Compound 262, 1-(3,3-Dimethyl-butyl)-3-(4-{7-[2-hydroxy-3-(4-pyrrolidin-1-yl-piperidin-1-yl)-propoxy]-6-methoxy-quinolin-4-yloxy}-phenyl)-urea] is more than 8.00.
As to `COc1cc2nccc(Oc3ccc(NC(=O)NC4CCCC(C)(C)C4)c(F)c3)c2cc1OC` (centres unmarked) [Compound 109, 1-[4-(6,7-Dimethoxy-quinolin-4-yloxy)-2-fluoro-phenyl]-3-(3,3-dimethyl-cyclohexyl)-urea], the pIC50 is more than 8.00.
To `COc1cc2c(Oc3ccc(NC(=O)NCCC(C)(C)C)cc3)ccnc2cc1OCCNCCO` [Compound 372, 1-(3,3-Dimethyl-butyl)-3-(4-{7-[2-(2-hydroxy-ethylamino)-ethoxy]-6-methoxy-quinolin-4-yloxy}-phenyl)-urea] belongs more than 8.00; to `COc1cc2c(Oc3ccc(NC(=O)NCCC(C)(C)C)c(Cl)c3)ccnc2cc1OCCN(C)CCO` [Compound 177, 1-[2-Chloro-4-(7-{2-[(2-hydroxy-ethyl)-methyl-amino]-ethoxy}-6-methoxy-quinolin-4-yloxy)-phenyl]-3-(3,3-dimethyl-butyl)-urea], 7.97.
The figure for `COc1cc2c(Oc3ccc(Nc4ccc(C(C)(C)C)cc4)cc3)ccnc2cc1OCCCN1CCC(CCO)CC1` [Compound 218, 2-[1-(3-{4-[4-(4-Tert-butyl-phenylamino)-phenoxy]-6-methoxy-quinolin-7-yloxy}-propyl)-piperidin-4-yl]-ethanol] is 7.02; for `COc1cc2c(Oc3ccc(NC(=O)NCCC(C)(C)C)c(F)c3)ccnc2cc1OCCN1C(C)(C)CCCC1(C)C` [Compound 131, 1-(3,3-Dimethyl-butyl)-3-(2-fluoro-4-{6-methoxy-7-[2-(2,2,6,6-tetramethyl-piperidin-1-yl)-ethoxy]-quinolin-4-yloxy}-phenyl)-urea] it is 6.79; for `COc1cc2c(Oc3ccc(NC(=O)NCCC(C)(C)C)cc3)ccnc2cc1OCCCl` [Compound 152, 1-{4-[7-(2-Chloro-ethoxy)-6-methoxy-quinolin-4-yloxy]-phenyl}-3-(3,3-dimethyl-butyl)-urea] it is 7.60.
The figure for `COc1cc2c(Oc3ccc(Nc4ccc(C(C)(C)C)cc4)cc3)ccnc2cc1OCC(O)CN1CCCCCC1` (centres unmarked) [Compound 63, 1-Azepan-1-yl-3-{4-[4-(4-tert-butylphenylamino)phenoxy]-6-methoxyquinolin-7-yloxy}propan-2-ol] is 6.61.
With `CCC(CO)(CO)NCCOc1cc2nccc(Oc3ccc(NC(=O)NCCC(C)(C)C)cc3)c2cc1OC` [Compound 354, 1-(4-{7-[2-(1,1-Bis-hydroxymethyl-propylamino)-ethoxy]-6-methoxy-quinolin-4-yloxy}-phenyl)-3-(3,3-dimethyl-butyl)-urea], the pIC50 is 7.42.
The figure for `COc1cc2nccc(Oc3ccc(Nc4ccc(C(C)(C)C)cc4)cc3)c2cc1OCCN(C)CCO` [Compound 357, 2-[(2-{4-[4-(4-Tert-butyl-phenylamino)-phenoxy]-7-methoxy-quinolin-6-yloxy}-ethyl)-methyl-amino]-ethanol] is 6.67.
